One may read the IC50 as the point on the concentration scale where inhibition reaches its midpoint. A word on the amount remaining: it is what is left of the initial amount, in per cent.

In one data set the target is T1, hP2X3R (Homo sapiens, UniProt P56373).
T1 construct: expressed in transfected cells
T1 sequence (P56373 1-397): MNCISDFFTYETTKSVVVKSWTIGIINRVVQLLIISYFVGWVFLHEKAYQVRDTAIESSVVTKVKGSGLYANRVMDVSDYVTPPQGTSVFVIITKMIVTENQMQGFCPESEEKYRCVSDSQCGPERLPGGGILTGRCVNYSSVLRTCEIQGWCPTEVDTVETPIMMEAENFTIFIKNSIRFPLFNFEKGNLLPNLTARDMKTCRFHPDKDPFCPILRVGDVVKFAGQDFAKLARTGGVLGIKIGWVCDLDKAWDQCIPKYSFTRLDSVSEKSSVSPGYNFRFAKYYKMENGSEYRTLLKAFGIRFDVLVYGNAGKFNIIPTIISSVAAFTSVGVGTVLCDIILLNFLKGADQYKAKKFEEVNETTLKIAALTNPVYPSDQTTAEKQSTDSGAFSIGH
The data set is described as follows: Calcium influx (Fluo-4) evoked by α,β-meATP in HEK293 cells stably expressing hP2X3R. The format is cell-based. As to conditions: antagonistic activity; HEK293 cells expressing hP2X3R; agonist at EC70. How it is done: For the evaluation of P2XR activities, a cell-based assay system was employed to measure the level of fluorescence emission, based on Fluo-4 dye, during Ca^2+ influx evoked by αβmeATP in HEK293 cells stably expressing hP2X2/3R and hP2X3R. The library containing 8364 representative compounds for the screening of antagonistic activity was provided by the Korea Chemical Bank. The antagonistic activities were evaluated in the presence of P2X3R agonist of the concentration for EC70 value (200–250 nM for hP2X3R and 1–4 μM for hP2X2/3R highly expressed cell lines), and AF353 was used as the positive control antagonist for comparison. For the first round of screening, a single concentration (25 μM) of each library compound was tested to identify initial hit compounds, which were subsequently validated using both concentrations of 25 and 10 μM. Using a cut-off threshold of higher than 50% antagonistic activity and after confirming dose-dependency, 12 main hit compounds were selected.
3.4. Cell-Based Assay: Measurement of Calcium Influx by Fluorescence-Based Fluo-4 Dye Uptake in HEK293 Cells Expressing hP2X2/3 and hP2X3 Receptors
Human P2X3-expressing HEK293 cells were grown in DMEM supplemented with 10% fetal bovine serum and 1% antibiotic–antimycotic as a monolayer culture at 37 °C in a humidified atmosphere of 5% CO2. The 96-well black plates used in the experiments were prepared by coating them with 1× poly-D-lysine (A3890401, Thermo-Fisher Scientific Korea, Seoul, South Korea). An aliquot of 40 μL 1× poly-D-lysine was used to treat each of the wells in a flat orientation. After leaving the plates for at least 4 h to absorb the poly-D-lysine, the plates were allowed to dry for at least 6 h. The DMEM used in the culture of HEK293 cells was removed from the dish, followed by application of 3 mL 1× PBS for washing. Removal of 1× PBS was followed by application of 1 mL trypsin/EDTA, and the cells were collected by centrifugation at 1200 rpm for 2 min. The supernatant was removed, and 1 mL fresh DMEM added. The cells were resuspended in media and plates prepared with 4.8 × 10^4 cells/well in 56 μL/well. After 18 h of cell culture in the 96-well black plate, 56 μL of Fluo-4 dye (Fluo-4 Direct^TM Calcium Assay Kit, F10471, Invitrogen, Thermo-Fisher Scientific Korea, Seoul, South Korea) was added to each well, prepared according to the manufacturer’s protocol, and incubated for 50 min~1 h under culturing conditions. Then, 12.4 μL of the appropriate compound solution was added to each well, and the positive control was AF353 (A1612, Sigma Aldrich Korea, Seoul, South Korea) and the negative control was 5% DMSO. Plates were incubated at room temperature and sealed to avoid interference from light for 50 min~1 h. Flexstation 3 and its software provided by Molecular Devices was used for the measurement of fluorescence in real time of treatments using prepared α,β-meATP (M6517, Sigma Aldrich) solution to evoke calcium influx and increased cell membrane potential.
For the analysis of antagonistic activities, all data were calculated by Origin Pro 9.1 software provided by Originlab and the fitting of graphs was proceeded by the growth/sigmoidal and hill1 process within no weights for data selections. For the analysis of the behavioral assessments of pain models, all data are expressed as mean ± SEM. The dose–response data are presented as percentages of the maximum possible effect. Statistical significance was analyzed by independent t-test. The criterion for statistical significance was p < 0.05. The statistical analysis was performed using SPSS 25.0 software (IBM Corp., Armonk, NY, USA).

A short description of data set [1]: Metabolic stability in microsomal fraction, human. As to conditions: human microsomal fraction, read-out: Metabolic Stability (Microsomal Fr.) % remaining after 30 min. The class given is in vitro ADME.
For a further data set, the target named is CYP 2C19 (Homo sapiens, UniProt P33261). Kind of data set: CYP450 inhibition 2C19. The format is in vitro ADME. The following applies: compound 10 μM.
For the next data set, the target named is CYP 2D6 (Homo sapiens, UniProt P10635). The data set is described as follows: CYP450 inhibition 2D6. The format is in vitro ADME. As to conditions: compound 10 μM.
The subject of a further data set is SNL rats. Kind of data set: Antiallodynic effect, spinal nerve ligation (SNL) neuropathic pain model, von Frey. The class given is in vivo, male Sprague-Dawley rats. The following applies: intravenous 12 mg/kg, von Frey filaments, five rats. An excerpt:
(§1) The experimental protocol (CNUHIACUC-20039) was approved by the Institutional Animal Care and Use Committee of Chonnam National University Hospital. Animal models of neuropathic pain (NP) were constructed by spinal nerve ligation (SNL) or chemotherapeutics injection (chemotherapy-induced peripheral neuropathy, CIPN) in male Sprague-Dawley rats (weight, 150–180 g). Briefly, under sevoflurane anesthesia, the left L5 and L6 spinal nerves near the vertebral column were separated and tightly ligated using 6-0 silk. Cisplatin was administered intraperitoneally at 2 mg/kg once daily for 4 days. The paw withdrawal threshold (PWT) to mechanical stimuli was measured using calibrated 0.41–15.2 g von Frey filaments (Stoelting, Wood Dale, IL, USA), as described previously. […] The antiallodynic effects of the intravenous vehicle and LDD4692 (3mg/rat) were evaluated and expressed as the percentage of the maximal possible effect (% MPE). % MPE = [(post drug PWT − post injured baseline PWT)/(cutoff PWT − post injured baseline PWT)] × 100
(§2) For the analysis of antagonistic activities, all data were calculated by Origin Pro 9.1 software provided by Originlab and the fitting of graphs was proceeded by the growth/sigmoidal and hill1 process within no weights for data selections. For the analysis of the behavioral assessments of pain models, all data are expressed as mean ± SEM. […]

Another data set has as its system CIPN rats. Kind of data set: Antiallodynic effect, cisplatin chemotherapy-induced peripheral neuropathy (CIPN) model, von Frey. The class given is in vivo, male Sprague-Dawley rats. As to conditions: intravenous 12 mg/kg, von Frey filaments, five rats.
Text: as §1, §2

Sequence of CYP 2C19 (P33261 whole entry): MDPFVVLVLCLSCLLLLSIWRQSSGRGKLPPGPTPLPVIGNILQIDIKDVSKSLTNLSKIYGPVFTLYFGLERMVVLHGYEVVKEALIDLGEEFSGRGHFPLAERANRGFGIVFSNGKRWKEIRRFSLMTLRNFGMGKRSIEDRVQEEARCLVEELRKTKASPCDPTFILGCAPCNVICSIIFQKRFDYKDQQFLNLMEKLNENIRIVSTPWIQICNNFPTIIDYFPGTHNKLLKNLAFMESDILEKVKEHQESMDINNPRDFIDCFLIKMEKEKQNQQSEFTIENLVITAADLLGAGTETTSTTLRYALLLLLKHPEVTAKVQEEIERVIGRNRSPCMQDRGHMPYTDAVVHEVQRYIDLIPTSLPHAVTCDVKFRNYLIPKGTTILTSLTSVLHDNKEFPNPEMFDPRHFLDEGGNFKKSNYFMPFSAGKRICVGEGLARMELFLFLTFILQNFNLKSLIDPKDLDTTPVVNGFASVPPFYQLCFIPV
Sequence of CYP 2D6 (P10635 whole entry): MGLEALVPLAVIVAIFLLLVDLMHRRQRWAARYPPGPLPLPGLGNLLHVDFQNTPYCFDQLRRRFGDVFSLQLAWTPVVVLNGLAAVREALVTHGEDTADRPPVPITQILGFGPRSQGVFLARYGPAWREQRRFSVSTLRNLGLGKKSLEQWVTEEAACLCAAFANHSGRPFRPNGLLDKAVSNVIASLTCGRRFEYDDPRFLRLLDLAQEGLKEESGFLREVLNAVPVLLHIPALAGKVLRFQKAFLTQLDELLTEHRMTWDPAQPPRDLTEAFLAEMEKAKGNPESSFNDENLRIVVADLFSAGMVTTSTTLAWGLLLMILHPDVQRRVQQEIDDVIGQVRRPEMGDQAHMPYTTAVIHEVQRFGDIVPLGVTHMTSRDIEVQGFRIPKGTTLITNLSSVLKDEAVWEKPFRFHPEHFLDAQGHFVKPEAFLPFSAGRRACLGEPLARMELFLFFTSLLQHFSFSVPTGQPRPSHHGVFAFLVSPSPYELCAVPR

For `O=C1C(NC2CCN(C(=O)c3ccc(F)c(F)c3)CC2)=C(Cl)C(=O)c2[nH]c(C(F)(F)F)nc21` [14h, 6-Chloro-5-((1-(3,4-difluorobenzoyl)piperidin-4-yl)amino)-2-(trifluoromethyl)-1H-benzo[d]imidazole-4,7-dione], on hP2X3R, the half-inhibitory concentration (IC50) came to 375 ± 33 nM. Further, the amount remaining at 0.5 h in data set [1] is more than 99%. For the same molecule, at CYP 2C19, the “CYP450 inhibition 2C19” value was 25.6%. Besides, the “CYP450 inhibition 2D6” value at CYP 2D6 amounted to 7.74%. Further, the “Maximal possible effect (% MPE), antiallodynic” value in the data set on SNL rats was determined as 54%; in the data set with CIPN rats, 78%.

Source of the values: publication PMC8877008, “Synthesis and Structure–Activity Relationship Studies of Benzimidazole-4,7-dione-Based P2X3 Receptor Antagonists as Novel Anti-Nociceptive Agents” (Molecules, 2022).
